# Experimental data as given in PubChem BioAssay AID1963440 (Molecular Pharmacology Branch, DTP, NCI, 2024).
# Test system: NCI-H1417 complex spheroids, growth % test/control
# Assay: Anticancer human tumor NCI-H1417 cell line growth inhibition [Asc];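 further: spheroids exposed to compounds for 7 days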;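 on viability, T/C: 100% = DMSO vehicle control wells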
# Settings: for IC50: curve of first compound; for viability, T/C: stronger effect = lower value
# Outline: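 Complex spheroids combining tumor cells with HUVEC endothelial cells and human MSCs, at 37 degrees C, 5% CO2; agents tested alone or combined, half-log dilutions from at or near clinical Cmax, or 10 microM if Cmax unknown.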
structure (smiles),measurement,setting,value
Cc1nc(N2CCC3(CC2)COC(C)C3N)c(CO)nc1Sc1ccnc(N)c1Cl (configuration not stated) + CCN1C(C(=O)NC23CCC(C(=O)O)(CC2)CC3)C(c2cccc(Cl)c2F)C2(C(=O)Nc3cc(Cl)ccc32)C12CCCCC2,IC50,second compound 0.03 µM,> 3 µM
same,IC50,second compound 0.0949 µM,> 3 µM
same,IC50,second compound 0.3 µM,> 3 µM
same,IC50,second compound 0.949 µM,> 3 µM
same,IC50,second compound 3 µM,> 3 µM
same,"viability, T/C","second compound 0.03 µM, first compound 0.00949 µM",106%
same,"viability, T/C","second compound 0.03 µM, first compound 0.03 µM",104%
same,"viability, T/C","second compound 0.03 µM, first compound 0.0949 µM",92.1%
same,"viability, T/C","second compound 0.03 µM, first compound 0.3 µM",86.1%
same,"viability, T/C","second compound 0.03 µM, first compound 0.949 µM",90.4%
same,"viability, T/C","second compound 0.03 µM, first compound 3 µM",82.6%
same,"viability, T/C","second compound 0.0949 µM, first compound 0.00949 µM",92.8%
same,"viability, T/C","second compound 0.0949 µM, first compound 0.03 µM",89.5%
same,"viability, T/C","second compound 0.0949 µM, first compound 0.0949 µM",91.4%
same,"viability, T/C","second compound 0.0949 µM, first compound 0.3 µM",82.1%
same,"viability, T/C","second compound 0.0949 µM, first compound 0.949 µM",87.8%
same,"viability, T/C","second compound 0.0949 µM, first compound 3 µM",79.4%
same,"viability, T/C","second compound 0.3 µM, first compound 0.00949 µM",98.6%
same,"viability, T/C","second compound 0.3 µM, first compound 0.03 µM",104%
same,"viability, T/C","second compound 0.3 µM, first compound 0.0949 µM",106%
same,"viability, T/C","second compound 0.3 µM, first compound 0.3 µM",82.7%
same,"viability, T/C","second compound 0.3 µM, first compound 0.949 µM",92.9%
same,"viability, T/C","second compound 0.3 µM, first compound 3 µM",82.5%
same,"viability, T/C","second compound 0.949 µM, first compound 0.00949 µM",103%
same,"viability, T/C","second compound 0.949 µM, first compound 0.03 µM",93.9%
same,"viability, T/C","second compound 0.949 µM, first compound 0.0949 µM",97.4%
same,"viability, T/C","second compound 0.949 µM, first compound 0.3 µM",78.3%
same,"viability, T/C","second compound 0.949 µM, first compound 0.949 µM",73.3%
same,"viability, T/C","second compound 0.949 µM, first compound 3 µM",84.4%
same,"viability, T/C","second compound 3 µM, first compound 0.00949 µM",88.9%
same,"viability, T/C","second compound 3 µM, first compound 0.03 µM",95%
same,"viability, T/C","second compound 3 µM, first compound 0.0949 µM",96.5%
same,"viability, T/C","second compound 3 µM, first compound 0.3 µM",99.7%
same,"viability, T/C","second compound 3 µM, first compound 0.949 µM",79.9%
same,"viability, T/C","second compound 3 µM, first compound 3 µM",80.3%
C#Cc1c(F)ccc2cc(O)cc(-c3ncc4c(N5CC6CCC(C5)N6)nc(OCC56CCCN5CC(F)C6)nc4c3F)c12 (configuration not stated) + CNC(C)C(=O)NC1CN(S(=O)(=O)c2cccc(S(=O)(=O)N3CCC4CCC(C(=O)NC(c5ccccc5)c5ccccc5)N4C(=O)C(NC(=O)C(C)NC)C3)c2)CCC2CCC(C(=O)NC(c3ccccc3)c3ccccc3)N2C1=O,IC50,second compound 0.00316 µM,> 10 µM
same,IC50,second compound 0.01 µM,> 10 µM
same,IC50,second compound 0.0316 µM,> 10 µM
same,IC50,second compound 0.1 µM,> 10 µM
same,IC50,second compound 0.316 µM,> 10 µM
same,IC50,second compound 1 µM,> 10 µM
same,"viability, T/C","second compound 0.00316 µM, first compound 0.0316 µM",96.1%
same,"viability, T/C","second compound 0.00316 µM, first compound 0.1 µM",87.6%
same,"viability, T/C","second compound 0.00316 µM, first compound 0.316 µM",99.3%
same,"viability, T/C","second compound 0.00316 µM, first compound 1 µM",95.7%
same,"viability, T/C","second compound 0.00316 µM, first compound 3.16 µM",81.7%
same,"viability, T/C","second compound 0.00316 µM, first compound 10 µM",65%
same,"viability, T/C","second compound 0.01 µM, first compound 0.0316 µM",98%
same,"viability, T/C","second compound 0.01 µM, first compound 0.1 µM",90%
same,"viability, T/C","second compound 0.01 µM, first compound 0.316 µM",82.2%
same,"viability, T/C","second compound 0.01 µM, first compound 1 µM",98.1%
same,"viability, T/C","second compound 0.01 µM, first compound 3.16 µM",93.2%
same,"viability, T/C","second compound 0.01 µM, first compound 10 µM",66.4%
same,"viability, T/C","second compound 0.0316 µM, first compound 0.0316 µM",101%
same,"viability, T/C","second compound 0.0316 µM, first compound 0.1 µM",90.6%
same,"viability, T/C","second compound 0.0316 µM, first compound 0.316 µM",91.1%
same,"viability, T/C","second compound 0.0316 µM, first compound 1 µM",98.2%
same,"viability, T/C","second compound 0.0316 µM, first compound 3.16 µM",88.9%
same,"viability, T/C","second compound 0.0316 µM, first compound 10 µM",69.3%
same,"viability, T/C","second compound 0.1 µM, first compound 0.0316 µM",89.5%
same,"viability, T/C","second compound 0.1 µM, first compound 0.1 µM",91.5%
same,"viability, T/C","second compound 0.1 µM, first compound 0.316 µM",86%
same,"viability, T/C","second compound 0.1 µM, first compound 1 µM",97.6%
same,"viability, T/C","second compound 0.1 µM, first compound 3.16 µM",91.2%
same,"viability, T/C","second compound 0.1 µM, first compound 10 µM",69.8%
same,"viability, T/C","second compound 0.316 µM, first compound 0.0316 µM",82.3%
same,"viability, T/C","second compound 0.316 µM, first compound 0.1 µM",80.9%
same,"viability, T/C","second compound 0.316 µM, first compound 0.316 µM",87.1%
same,"viability, T/C","second compound 0.316 µM, first compound 1 µM",86.7%
same,"viability, T/C","second compound 0.316 µM, first compound 3.16 µM",91.2%
same,"viability, T/C","second compound 0.316 µM, first compound 10 µM",64.6%
same,"viability, T/C","second compound 1 µM, first compound 0.0316 µM",97.5%
same,"viability, T/C","second compound 1 µM, first compound 0.1 µM",80.9%
same,"viability, T/C","second compound 1 µM, first compound 0.316 µM",89.6%
same,"viability, T/C","second compound 1 µM, first compound 1 µM",84.3%
same,"viability, T/C","second compound 1 µM, first compound 3.16 µM",86.7%
same,"viability, T/C","second compound 1 µM, first compound 10 µM",66.8%
